Experimental data: patent publication US12668584B2, “Heterocyclic compounds as kinase inhibitors for therapeutic uses” (National Health Research Institutes, priority 2019, dated 2026)

Columns and labels:
[1] = target: discoidin domain receptor tyrosine kinase 1 (DDR1) (Homo sapiens, UniProt Q08345); experiment: HotSpot kinase profiling, DDR1; assay type: biochemical; details: HotSpot assay, 10 μM ATP; IC50 of kinase divided by that of CSF1R
Description: (§1) A study was conducted to determine kinase selectivity of compounds 27 and 67. More specifically, each compound was tested for inhibitory activity of CSF1R kinase, as compared to that of seven other kinases, i.e., Aurora A, Aurora B, tyrosine-protein kinase Kit (c-Kit), fms-like tyrosine kinase 3 (FLT3), platelet-derived growth factor receptor (PDGFR) A, PDGFR B, and discoidin domain receptor tyrosine kinase 1 (DDR1).
(§2) In vitro profiling of the kinase panel was performed at Reaction Biology Corporation (www.reactionbiology.com, Malvern, PA) using the “HotSpot” assay platform. Briefly, specific kinase/substrate pairs along with required cofactors were prepared in a reaction buffer containing 20 mM Hepes pH 7.5, 10 mM MgCl2, 1 mM EGTA, 0.02% Brij35, 0.02 mg/ml BSA, 0.1 mM NA3VO4, 2 mM DTT, and 1% DMSO. Compound 27 or 67 was added. 20 minutes later, a mixture of ATP (Sigma, St. Louis MO) and ^33P ATP (Perkin Elmer, Waltham MA) was added to the resulting reaction solution to give a final concentration of 10 μM. The reaction was carried out at room temperature for 120 min., followed by spotting the reaction solution onto P81 ion exchange filter paper (Whatman Inc., Piscataway, NJ). Unbound phosphate was removed by extensive washing filters in 0.75% phosphoric acid. […] Selectivity, expressed as an IC50 ratio, was determined by dividing the IC50 value of a kinase, e.g., Aurora A, by that of CSF1R.

[2] = target: T1, CSF1R kinase (recombinant N-terminal GST-CSF1R, residues L534-C972) (Homo sapiens, UniProt P07333); experiment: CSF1R Kinase-Glo assay; assay type: biochemical; details: 40 μM ATP, 30° C. 180 min, read-out: Enzymatic Assay CSF1R enzyme IC50
T1 construct: Recombinant N-terminal GST-CSF1R (CSF1R residues L534-C972) containing the CSFIR kinase domain; made in house; host or cells: Sf9 insect cells
T1 sequence (P07333 534-972): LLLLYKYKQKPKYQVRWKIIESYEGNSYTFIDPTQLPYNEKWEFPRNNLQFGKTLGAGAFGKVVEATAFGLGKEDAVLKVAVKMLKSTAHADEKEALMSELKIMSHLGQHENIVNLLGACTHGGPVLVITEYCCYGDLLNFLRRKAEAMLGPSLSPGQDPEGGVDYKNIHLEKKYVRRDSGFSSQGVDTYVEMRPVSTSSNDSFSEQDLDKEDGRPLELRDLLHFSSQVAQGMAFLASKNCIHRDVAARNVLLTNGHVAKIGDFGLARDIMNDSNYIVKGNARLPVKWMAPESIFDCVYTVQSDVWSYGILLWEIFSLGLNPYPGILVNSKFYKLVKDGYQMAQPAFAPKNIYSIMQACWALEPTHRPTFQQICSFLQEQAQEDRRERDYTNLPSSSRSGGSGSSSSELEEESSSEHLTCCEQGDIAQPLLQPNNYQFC
Procedure, shortened: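 Sf9-expressed, purified GST-CSF1R kinase domain (600 ng) was incubated with compound for 180 min at 30° C. with 40 μM ATP and 20 μM poly(Glu,Tyr) 4:1 at pH 7.4 (Mn2+/Mg2+). Remaining ATP was read by Kinase-Glo Plus luminescence. IC50 was fitted from percentage inhibition versus no-compound controls across a concentration range.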

[3] = target: platelet-derived growth factor receptor (PDGFR) A (Homo sapiens, UniProt P16234); experiment: HotSpot kinase profiling, PDGFR A; assay type: biochemical; details: HotSpot assay, 10 μM ATP; IC50 of kinase divided by that of CSF1R
Description: as §1, §2

M-NFS-60 cells = experiment: MTS cell viability assay, M-NFS-60; assay type: cell-based; details: 72 h, read-out: Cellular Proliferation Assay M-NFS-60 (nM) GI50
Procedure, shortened: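 Cells seeded 16 h beforehand (10000 M-NFS-60 or 8000 BaF3-CSF1R-1600 per well), then exposed 72 h to test compounds in RPMI1640 with 10% FBS at 37 °C. Viability read by MTS absorbance at 490 nm; GI50 is the concentration giving 50% viability reduction versus DMSO vehicle.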

PDGFR B = PDGFR B (Homo sapiens, UniProt P09619); experiment: HotSpot kinase profiling, PDGFR B; assay type: biochemical; details: HotSpot assay, 10 μM ATP; IC50 of kinase divided by that of CSF1R
Description: as §1, §2

Sequence of PDGFR B (P09619 33-1106): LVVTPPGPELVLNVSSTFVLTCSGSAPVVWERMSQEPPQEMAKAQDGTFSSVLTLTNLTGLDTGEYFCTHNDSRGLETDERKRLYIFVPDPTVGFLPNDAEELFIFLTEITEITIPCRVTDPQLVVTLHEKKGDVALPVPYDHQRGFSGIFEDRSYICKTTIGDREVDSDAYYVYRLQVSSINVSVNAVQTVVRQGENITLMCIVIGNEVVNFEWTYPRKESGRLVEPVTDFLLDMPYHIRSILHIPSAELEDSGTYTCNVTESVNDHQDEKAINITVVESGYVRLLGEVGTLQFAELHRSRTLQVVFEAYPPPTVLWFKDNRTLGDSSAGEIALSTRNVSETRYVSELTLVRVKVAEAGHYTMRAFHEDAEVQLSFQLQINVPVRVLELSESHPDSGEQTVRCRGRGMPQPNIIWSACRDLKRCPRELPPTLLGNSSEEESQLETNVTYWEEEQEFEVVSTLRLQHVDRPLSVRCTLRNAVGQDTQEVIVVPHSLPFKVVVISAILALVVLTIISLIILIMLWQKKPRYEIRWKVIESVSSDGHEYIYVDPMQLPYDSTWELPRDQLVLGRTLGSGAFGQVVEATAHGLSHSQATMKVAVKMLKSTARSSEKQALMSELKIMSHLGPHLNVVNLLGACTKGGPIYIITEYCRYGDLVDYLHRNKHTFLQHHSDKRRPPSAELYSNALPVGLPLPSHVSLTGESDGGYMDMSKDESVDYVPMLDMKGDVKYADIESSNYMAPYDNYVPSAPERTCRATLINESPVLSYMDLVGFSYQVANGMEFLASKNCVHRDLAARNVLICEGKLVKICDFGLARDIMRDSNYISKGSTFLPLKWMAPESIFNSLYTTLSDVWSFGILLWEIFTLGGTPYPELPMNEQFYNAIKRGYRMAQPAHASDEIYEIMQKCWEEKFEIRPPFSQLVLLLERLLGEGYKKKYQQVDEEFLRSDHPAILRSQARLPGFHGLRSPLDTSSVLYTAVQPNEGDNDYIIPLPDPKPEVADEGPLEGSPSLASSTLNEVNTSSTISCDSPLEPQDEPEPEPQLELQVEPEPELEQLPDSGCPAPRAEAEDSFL
Sequence of discoidin domain receptor tyrosine kinase 1 (DDR1) (Q08345 19-913): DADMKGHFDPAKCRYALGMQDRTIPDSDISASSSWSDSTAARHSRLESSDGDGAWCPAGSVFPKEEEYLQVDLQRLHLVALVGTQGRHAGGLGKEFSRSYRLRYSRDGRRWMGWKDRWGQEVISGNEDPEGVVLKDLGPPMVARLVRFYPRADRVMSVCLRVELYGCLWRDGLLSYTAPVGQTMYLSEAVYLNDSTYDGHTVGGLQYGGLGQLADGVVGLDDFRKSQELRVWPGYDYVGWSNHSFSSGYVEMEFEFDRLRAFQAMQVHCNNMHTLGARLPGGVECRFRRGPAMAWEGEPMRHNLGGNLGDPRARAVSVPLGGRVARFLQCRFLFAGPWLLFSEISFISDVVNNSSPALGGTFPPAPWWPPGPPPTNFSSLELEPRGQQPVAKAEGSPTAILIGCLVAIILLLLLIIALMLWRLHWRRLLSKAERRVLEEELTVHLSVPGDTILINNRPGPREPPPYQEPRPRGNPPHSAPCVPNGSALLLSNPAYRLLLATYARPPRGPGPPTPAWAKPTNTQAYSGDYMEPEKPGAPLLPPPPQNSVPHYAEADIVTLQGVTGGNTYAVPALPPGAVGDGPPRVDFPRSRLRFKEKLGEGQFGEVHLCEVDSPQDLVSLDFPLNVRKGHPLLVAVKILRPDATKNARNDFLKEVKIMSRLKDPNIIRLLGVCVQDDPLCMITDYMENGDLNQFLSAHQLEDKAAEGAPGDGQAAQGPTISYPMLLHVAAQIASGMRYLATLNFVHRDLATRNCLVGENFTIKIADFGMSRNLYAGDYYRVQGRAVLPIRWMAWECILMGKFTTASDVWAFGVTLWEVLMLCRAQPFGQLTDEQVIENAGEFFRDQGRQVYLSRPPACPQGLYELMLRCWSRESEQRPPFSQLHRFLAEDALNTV
Sequence of platelet-derived growth factor receptor (PDGFR) A (P16234 24-1089): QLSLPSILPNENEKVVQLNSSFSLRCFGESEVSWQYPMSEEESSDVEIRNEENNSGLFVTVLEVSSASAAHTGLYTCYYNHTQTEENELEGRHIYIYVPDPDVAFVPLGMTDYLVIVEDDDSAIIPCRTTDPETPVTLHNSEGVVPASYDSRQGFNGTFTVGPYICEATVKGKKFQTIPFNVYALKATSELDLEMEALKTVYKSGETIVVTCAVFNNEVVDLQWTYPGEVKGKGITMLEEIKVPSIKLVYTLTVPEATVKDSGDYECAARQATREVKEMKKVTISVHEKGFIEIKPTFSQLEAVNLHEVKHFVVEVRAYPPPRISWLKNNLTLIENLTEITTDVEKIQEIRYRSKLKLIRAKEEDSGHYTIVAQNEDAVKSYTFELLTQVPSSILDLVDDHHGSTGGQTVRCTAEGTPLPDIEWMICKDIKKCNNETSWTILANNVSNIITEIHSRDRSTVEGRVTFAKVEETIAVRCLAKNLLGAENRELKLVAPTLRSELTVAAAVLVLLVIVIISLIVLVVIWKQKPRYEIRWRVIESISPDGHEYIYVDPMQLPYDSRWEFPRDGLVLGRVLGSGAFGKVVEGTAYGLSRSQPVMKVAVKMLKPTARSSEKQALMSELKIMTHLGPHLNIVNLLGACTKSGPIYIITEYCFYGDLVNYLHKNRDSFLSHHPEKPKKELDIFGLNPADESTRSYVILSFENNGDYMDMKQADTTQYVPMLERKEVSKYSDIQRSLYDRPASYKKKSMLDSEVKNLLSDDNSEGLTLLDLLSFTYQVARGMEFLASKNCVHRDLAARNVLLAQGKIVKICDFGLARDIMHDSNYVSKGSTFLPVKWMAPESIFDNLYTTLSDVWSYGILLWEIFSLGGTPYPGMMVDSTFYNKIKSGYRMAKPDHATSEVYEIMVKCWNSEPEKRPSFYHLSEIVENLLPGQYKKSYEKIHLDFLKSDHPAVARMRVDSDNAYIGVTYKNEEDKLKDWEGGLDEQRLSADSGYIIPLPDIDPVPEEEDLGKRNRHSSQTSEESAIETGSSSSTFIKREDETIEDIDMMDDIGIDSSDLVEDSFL

Compound | IC50 ratio DDR1 / CSF1R [1] | IC50 [2] | IC50 ratio PDGFR A / CSF1R [3] | GI50 (M-NFS-60 cells) | IC50 ratio PDGFR B / CSF1R (PDGFR B)
CN(C)c1ccc2c(Oc3ccc(NC(=O)NCc4ccc(C(F)(F)F)nc4)cc3)ncnc2c1 [Compound 27, 1-(4-((7-(dimethylamino)quinazolin-4-yl)oxy)phenyl)-3-((6-(trifluoromethyl)pyridin-3-yl)methyl)urea] | +++ (+++: 1000 > IC50 ratio > 100) | < 20 nM | ++ (++: 100 > IC50 ratio > 10) | 20 to 100 nM | ++ (++: 100 > IC50 ratio > 10)
CN(C)c1ccc2c(Oc3ccc4c(ccn4C(=O)NCc4ccc(C(F)(F)F)nc4)c3)ncnc2c1 [Compound 67, 5-((7-(dimethylamino)quinazolin-4-yl)oxy)-N-((6-(trifluoromethyl)pyridin-3-yl)methyl)-1H-indole-1-carboxamide] | + (+: 10 > IC50 ratio > 1) | 20 to 100 nM | ++ (++: 100 > IC50 ratio > 10) | 100 to 1000 nM | +++ (+++: 1000 > IC50 ratio > 100)
